Measurements from patent US20070128217A1 (priority 2003, published 2007).

Assays:
[1] = tested on: antibodies in sera from SARS patients (sera 1a, 1b, 2, 6, 37, 62, London, SARS-yellow, SARS-green); assay type: binding, human; design: Binding of serum 6 to linear peptides of protein X1 of SARS-CoV Urbani / Binding of serum 37 to linear peptides of protein X1 of SARS-CoV Urbani / Binding of serum 6 to looped/cyclic peptide (PEPSCAN-ELISA) / Binding of serum 37 to looped/cyclic peptide (PEPSCAN-ELISA) / Binding of serum 37 to looped/cyclic peptides of protein X1 of SARS-CoV Urbani / Binding of serum 6 to linear peptides of protein X2 / Binding of serum 37 to linear peptides of protein X2 / Binding of serum 37 to looped/cyclic peptides of protein X2 of SARS-CoV Urbani / Binding of serum 6 to linear peptides of protein M of SARS-CoV Urbani / Binding of serum 37 to linear peptides of protein M of SARS-CoV Urbani / Binding of serum 6 to looped/cyclic peptides of protein M of SARS-CoV Urbani / Binding of serum 37 to looped/cyclic peptides of protein M of SARS-CoV Urbani / Binding of serum 6 to linear peptides of protein X3 of SARS-CoV Urbani / Binding of serum 37 to linear peptides of protein X3 of SARS-CoV Urbani / Binding of serum 37 to looped/cyclic peptides of protein X3 of SARS-CoV Urbani / Binding of serum 6 to linear peptides of protein X4 of SARS-CoV Urbani / Binding of serum 37 to linear peptides of protein X4 of SARS-CoV Urbani / Binding of serum 37 to looped/cyclic peptides of protein X4 of SARS-CoV Urbani / Binding of serum 6 to linear peptides of protein X5 of SARS-CoV Urbani / Binding of serum 37 to linear peptides of protein X5 of SARS-CoV Urbani / Binding of serum 37 to looped/cyclic peptides of protein X5 of SARS-CoV Urbani / Binding of serum 6 to linear peptides of protein N of SARS-CoV Urbani / Binding of serum 37 to linear peptides of protein N of SARS-CoV Urbani / Binding of serum 6 to linear peptide (PEPSCAN-ELISA) / Binding of serum 1a to looped/cyclic peptides of protein N of SARS-CoV Urbani / Binding of serum 1b to looped/cyclic peptides of protein N of SARS-CoV Urbani / Binding of serum 2 to looped/cyclic peptides of protein N of SARS-CoV Urbani / Binding of serum 6 to looped/cyclic peptides of protein N of SARS-CoV Urbani / Binding of serum 37 to looped/cyclic peptides of protein N of SARS-CoV Urbani / Binding of serum 62 to looped/cyclic peptides of protein N of SARS-CoV Urbani / Binding of serum London to looped/cyclic peptides of protein N of SARS-CoV Urbani / Binding of serum SARS-green to looped/cyclic peptides of protein N of SARS-CoV Urbani: unit not given here
[2] = tested on: control sera (pooled serum of ten healthy LUMC hospital workers; commercial negative donor pooled serum from the Dutch bloodbank); assay type: binding, human; design: Binding of Control serum LUMC to linear peptides / Binding of Control serum Blood-bank to linear peptides / Binding of Control serum LUMC to looped peptides / Binding of Control Serum Blood-Bank to Looped peptides / Binding of Control serum LUMC to linear peptides of the protein M of SARS-CoV Urbani / Binding of Control serum Blood-bank to linear peptides of the protein M of SARS-CoV Urbani / Binding of Control serum LUMC to looped peptides of the protein M of SARS-CoV Urbani / Binding of Control Serum Blood-Bank to Looped peptides of the protein M of SARS-CoV Urbani: unit not given here
[3] = tested on: rabbit serum obtained by immunizing a rabbit with the SARS-CoV strain Frankfurt 1; assay type: binding; design: Binding of a rabbit serum to linear peptides / Binding of a rabbit serum to looped peptides / Rabbit serum linear peptides / Rabbit serum looped peptides / Binding of a rabbit serum to linear peptides of protein N of SARS-CoV Urbani (Rabbit serum linear peptides) / Binding of a rabbit serum to looped/cyclic peptides of protein N of SARS-CoV Urbani (Rabbit serum looped peptides): unit not given here

FGWLVIGVAFLAVFQ
0.7: Binding of serum 1a to linear peptides of protein X1 of SARS-CoV Urbani [1] | Binding of serum 1a to looped/cyclic peptide (PEPSCAN-ELISA) [1] | Binding of serum 2 to looped/cyclic peptide (PEPSCAN-ELISA) [1] | Binding of serum 62 to looped/cyclic peptide (PEPSCAN-ELISA) [1] | Binding of Control serum LUMC to looped peptides [2]
1.2: Binding of a rabbit serum to linear peptides [3]
0.6: Binding of serum 37 to linear peptides of protein X1 of SARS-CoV Urbani [1] | Binding of serum 37 to looped/cyclic peptide (PEPSCAN-ELISA) [1] | Binding of serum 62 to linear peptides of protein X1 of SARS-CoV Urbani [1] | Binding of serum SARS-yellow to looped/cyclic peptide (PEPSCAN-ELISA) [1] | Binding of Control Serum Blood-Bank to Looped peptides [2]
0.1: Binding of serum SARS-green to linear peptides of protein X1 of SARS-CoV Urbani [1]
0.8: Binding of serum 1b to looped/cyclic peptide (PEPSCAN-ELISA) [1]
0.4: Binding of serum 6 to linear peptides of protein X1 of SARS-CoV Urbani [1] | Binding of serum SARS-green to looped/cyclic peptide (PEPSCAN-ELISA) [1]
0.3: Binding of serum London to linear peptides of protein X1 of SARS-CoV Urbani [1] | Binding of serum London to looped/cyclic peptide (PEPSCAN-ELISA) [1]
0.5: Binding of serum 1b to linear peptides of protein X1 of SARS-CoV Urbani [1] | Binding of serum 2 to linear peptides of protein X1 of SARS-CoV Urbani [1] | Binding of serum 6 to looped/cyclic peptide (PEPSCAN-ELISA) [1] | Binding of serum SARS-yellow to linear peptides of protein X1 of SARS-CoV Urbani [1] | Binding of Control serum Blood-bank to linear peptides [2] | Binding of Control serum LUMC to linear peptides [2] | Binding of a rabbit serum to looped peptides [3]

QSTALQELLIQQWIQ
0.5: Binding of serum 1b to looped/cyclic peptides of protein X2 of SARS-CoV Urbani [1] | Binding of serum 37 to linear peptides of protein X2 [1] | Binding of serum 62 to linear peptides of protein X2 [1] | Binding of serum London to linear peptides of protein X2 [1]
0.2: Binding of serum 6 to looped/cyclic peptides of protein X2 of SARS-CoV Urbani [1] | Binding of serum London to looped/cyclic peptides of protein X2 of SARS-CoV Urbani [1] | Binding of a rabbit serum to linear peptides [3]
0.4: Binding of serum 1b to linear peptides of protein X2 [1] | Binding of serum 2 to linear peptides of protein X2 [1] | Binding of serum 2 to looped/cyclic peptides of protein X2 of SARS-CoV Urbani [1] | Binding of serum 6 to linear peptides of protein X2 [1] | Binding of serum 37 to looped/cyclic peptides of protein X2 of SARS-CoV Urbani [1] | Binding of serum SARS-green to looped/cyclic peptides of protein X2 of SARS-CoV Urbani [1] | Binding of serum SARS-yellow to linear peptides of protein X2 [1] | Binding of serum SARS-yellow to looped/cyclic peptides of protein X2 of SARS-CoV Urbani [1] | Binding of Control serum LUMC to linear peptides [2] | Binding of a rabbit serum to looped peptides [3]
0.6: Binding of serum 1a to linear peptides of protein X2 [1] | Binding of serum 1a to looped/cyclic peptides of protein X2 of SARS-CoV Urbani [1] | Binding of serum 62 to looped/cyclic peptides of protein X2 of SARS-CoV Urbani [1] | Binding of serum SARS-green to linear peptides of protein X2 [1] | Binding of Control Serum Blood-Bank to Looped peptides [2] | Binding of Control serum Blood-bank to linear peptides [2] | Binding of Control serum LUMC to looped peptides [2]

QWNLVIGFLFLAWIM
0.1: Binding of serum SARS-yellow to linear peptides of protein M of SARS-CoV Urbani [1]
0.7: Binding of serum 1a to linear peptides of protein M of SARS-CoV Urbani [1] | Binding of serum 1a to looped/cyclic peptides of protein M of SARS-CoV Urbani [1] | Binding of serum 37 to linear peptides of protein M of SARS-CoV Urbani [1] | Binding of serum 62 to looped/cyclic peptides of protein M of SARS-CoV Urbani [1] | Binding of Control serum Blood-bank to linear peptides of the protein M of SARS-CoV Urbani [2]
0.5: Binding of serum 37 to looped/cyclic peptides of protein M of SARS-CoV Urbani [1]
0.6: Binding of serum 1b to looped/cyclic peptides of protein M of SARS-CoV Urbani [1] | Binding of serum 2 to linear peptides of protein M of SARS-CoV Urbani [1] | Binding of serum 2 to looped/cyclic peptides of protein M of SARS-CoV Urbani [1] | Binding of serum 6 to looped/cyclic peptides of protein M of SARS-CoV Urbani [1] | Binding of Control Serum Blood-Bank to Looped peptides of the protein M of SARS-CoV Urbani [2] | Binding of Control serum LUMC to looped peptides of the protein M of SARS-CoV Urbani [2]
0.3: Binding of serum London to linear peptides of protein M of SARS-CoV Urbani [1] | Binding of serum SARS-green to looped/cyclic peptides of protein M of SARS-CoV Urbani [1] | Binding of Control serum LUMC to linear peptides of the protein M of SARS-CoV Urbani [2] | Rabbit serum linear peptides [3] | Rabbit serum looped peptides [3]
0.2: Binding of serum London to looped/cyclic peptides of protein M of SARS-CoV Urbani [1] | Binding of serum SARS-green to linear peptides of protein M of SARS-CoV Urbani [1]
0.8: Binding of serum 62 to linear peptides of protein M of SARS-CoV Urbani [1] | Binding of serum SARS-yellow to looped/cyclic peptides of protein M of SARS-CoV Urbani [1]
0.4: Binding of serum 1b to linear peptides of protein M of SARS-CoV Urbani [1] | Binding of serum 6 to linear peptides of protein M of SARS-CoV Urbani [1]
